Results as given in US20260345619A1 (Principia Biopharma Inc., priority 2023, published 2026).

Experiment: Pre-bronchodilator FEV1 and percent predicted FEV1 by spirometry, change from baseline
Assay type: in vivo, human
Conditions: for Change from baseline in pre-bronchodilator FEV1, LS Mean (SE) / Change from baseline in pre-bronchodilator FEV1, LS Mean Diff vs. placebo (95% CI) / Change from baseline in pre-bronchodilator FEV1, Mean (SD): EOT (Week 12); for FEV1 change / improvement (in words): following ICS/LABA withdrawal, both cohorts
Description: Spirometry is a standard test to measure patients' lung function.
The primary endpoint was the proportion of patients with LOAC. The key secondary endpoint for the study was change in pre-bronchodilator FEV1 from baseline at EOT.
Reversibility is defined as an increase of the absolute FEV1 after administration of bronchodilator and is measured by spirometry as postbronchodilator increase in FEV1 in percent of the prebronchodilator FEV1. After spirometry for measuring prebronchodilator FEV1, participants were to receive 2-4 puffs of albuterol/salbutamol or levalbuterol/levosalbutamol from a primed MDI. The postbronchodilator spirometry may have been repeated several times within 30 minutes after administration of bronchodilator. Alternatively, and only if it was consistent with usual office practice (to be documented), reversibility may have been performed using inhalation of nebulized albuterol/salbutamol or levalbuterol/levosalbutamol.
Secondary endpoints included pre-bronchodilator FEV1 change from baseline at EOT, ACQ-5 score change from baseline, and AQLQ score change from baseline. Other secondary and exploratory endpoints are described in Table 2.

[1] = 400 mg TID, Week 12, smoking history Never
[2] = 400 mg TID, low EOS (<0.15) and low FeNO (<25), mITT
[3] = 400 mg TID, Week 2, observed/LOCF imputed, mITT
[4] = 400 mg TID, Week 4, observed/LOCF imputed, mITT
[5] = 400 mg TID, Week 6, observed/LOCF imputed, mITT
[6] = 400 mg TID, Week 8, observed/LOCF imputed, mITT
[7] = 400 mg TID, Week 10, observed/LOCF imputed, mITT
[8] = 400 mg TID, Week 12 (EOT), MMRM supplementary analysis, mITT
[9] = 400 mg TID, Week 12 (EOT), MMRM, mITT
[10] = 400 mg TID, Week 12, observed/LOCF imputed, mITT
[11] = 400 mg TID, Week 12, reduced model, mITT

## CC(C)(C=C(C#N)C(=O)N1CCC[C@@H](n2nc(-c3ccc(Oc4ccccc4)cc3F)c3c(N)ncnc32)C1)N1CCN(C2COC2)CC1 (mixture of isomers) [rilzabrutinib, (R)-2-[3-[4-amino-3-(2-fluoro-4-phenoxy-phenyl)pyrazolo[3,4-d]pyrimidin-1-yl]piperidine-1-carbonyl]-4-methyl-4-[4-(oxetan-3-yl)piperazin-1-yl]pent-2-enenitrile]
[1]
  Pre-bronchodilator FEV1 change from baseline, LS Mean Diff vs. placebo: -0.09 L
  Pre-bronchodilator FEV1 change from baseline, Mean: -0.15 L
400 mg TID, 95% CI −0.21, 0.03, p=0.1523
  Difference vs. placebo, LS mean change in pre-bronchodilator FEV1 (L) at Week 12: -0.09 L
400 mg TID, all others, mITT
  Change from baseline in pre-bronchodilator FEV1, LS Mean (SE): -0.09 L
  Change from baseline in pre-bronchodilator FEV1, LS Mean Diff vs. placebo (95% CI): -0.07 L
400 mg TID, all others, mITT, n=30
  Change from baseline in pre-bronchodilator FEV1, Mean (SD): -0.11 L
[2]
  Change from baseline in pre-bronchodilator FEV1, LS Mean (SE): -0.20 L
  Change from baseline in pre-bronchodilator FEV1, LS Mean Diff vs. placebo (95% CI): -0.14 L
400 mg TID, low EOS (<0.15) and low FeNO (<25), mITT, n=16
  Change from baseline in pre-bronchodilator FEV1, Mean (SD): -0.24 L
400 mg TID, N=64, mITT
  LS Mean change from baseline in pre-bronchodilator FEV1 (L) at Week 12: −0.13 (0.05) L
[3]
  Pre-bronchodilator FEV1, mean: 2.47 L
  Pre-bronchodilator FEV1, median: 2.37 L
  Pre-bronchodilator FEV1 change from baseline, LS Mean: -0.05 L
  Pre-bronchodilator FEV1 change from baseline, LS Mean Diff vs. placebo: -0.04 L
  Pre-bronchodilator FEV1 change from baseline, Mean: -0.04 L
  Pre-bronchodilator FEV1 change from baseline, median: -0.02 L
[4]
  Pre-bronchodilator FEV1, mean: 2.58 L
  Pre-bronchodilator FEV1, median: 2.50 L
  Pre-bronchodilator FEV1 change from baseline, LS Mean: -0.01 L
  Pre-bronchodilator FEV1 change from baseline, LS Mean Diff vs. placebo: 0.05 L
  Pre-bronchodilator FEV1 change from baseline, Mean: 0.02 L
  Pre-bronchodilator FEV1 change from baseline, median: -0.01 L
[5]
  Pre-bronchodilator FEV1, mean: 2.52 L
  Pre-bronchodilator FEV1, median: 2.37 L
  Pre-bronchodilator FEV1 change from baseline, LS Mean: -0.07 L
  Pre-bronchodilator FEV1 change from baseline, LS Mean Diff vs. placebo: 0.04 L
  Pre-bronchodilator FEV1 change from baseline, Mean: -0.07 L
  Pre-bronchodilator FEV1 change from baseline, median: -0.09 L
[6]
  Pre-bronchodilator FEV1, mean: 2.41 L
  Pre-bronchodilator FEV1, median: 2.38 L
  Pre-bronchodilator FEV1 change from baseline, LS Mean: -0.07 L
  Pre-bronchodilator FEV1 change from baseline, LS Mean Diff vs. placebo: 0.03 L
  Pre-bronchodilator FEV1 change from baseline, Mean: -0.12 L
  Pre-bronchodilator FEV1 change from baseline, median: -0.10 L
[7]
  Pre-bronchodilator FEV1, mean: 2.53 L
  Pre-bronchodilator FEV1, median: 2.50 L
  Pre-bronchodilator FEV1 change from baseline, LS Mean: -0.09 L
  Pre-bronchodilator FEV1 change from baseline, LS Mean Diff vs. placebo: 0.00 L
  Pre-bronchodilator FEV1 change from baseline, Mean: -0.10 L
  Pre-bronchodilator FEV1 change from baseline, median: -0.09 L
[8]
  Change from baseline in pre-bronchodilator FEV1, Mean: -0.14 L
  Change from baseline in pre-bronchodilator FEV1, Median: -0.09 L
  Pre-bronchodilator FEV1, Mean: 2.46 L
  Pre-bronchodilator FEV1, Median: 2.40 L
[9]
  Change from baseline in pre-bronchodilator FEV1, LS Mean: -0.16 L
  Change from baseline in pre-bronchodilator FEV1, LS Mean diff vs. placebo: -0.08 L
[10]
  Change from baseline in pre-bronchodilator FEV1, Mean: -0.15 L
  Change from baseline in pre-bronchodilator FEV1, Median: -0.12 L
  Pre-bronchodilator FEV1, Mean: 2.43 L
  Pre-bronchodilator FEV1, Median: 2.39 L
  Pre-bronchodilator FEV1, mean: 2.43 L
  Pre-bronchodilator FEV1, median: 2.39 L
  Pre-bronchodilator FEV1 change from baseline, LS Mean: -0.13 L
  Pre-bronchodilator FEV1 change from baseline, LS Mean Diff vs. placebo: -0.09 L
  Pre-bronchodilator FEV1 change from baseline, Mean: -0.15 L
  Pre-bronchodilator FEV1 change from baseline, median: -0.12 L
[11]
  Change from baseline in pre-bronchodilator FEV1, LS Mean: -0.13 L
  Change from baseline in pre-bronchodilator FEV1, LS Mean diff vs. placebo: -0.09 L
  FEV1 change / improvement (in words): did not exhibit any change in FEV1
Listed as Rilzabrutinib
  FEV1 change / improvement (in words): not associated with an improvement in FEV1 values
